{"source": "paper PMC7595150", "about": "“Amorphous solid dispersions of enzalutamide and novel polysaccharide derivatives: investigation of relationships between polymer structure and performance” (Scientific Reports, 2020)", "key": {"[1]": {"assay": "Nucleation induction time of supersaturated enzalutamide solutions with pre-dissolved polymer (UV dip probe)", "assay_type": "physicochemical", "conditions": "absence of polymers; initial 70 μg/mL enzalutamide, pH 6.5 phosphate buffer, 37 °C", "protocol": "The average time to detect the onset of crystallization for supersaturated solutions of enzalutamide was determined in phosphate buffer (pH 6.5, 50 mM) containing pre-dissolved polymer using an in situ UV dip probe as described by Mosquera-Giraldo et al.[11]. […] For enzalutamide the absorbance maximum is 237 nm and the baseline wavelength used was 446 nm. […] Next, a methanolic solution of enzalutamide (245 µL, 10 mg/mL) was added to the polymeric solution (35 mL) magnetically stirred at 300 rpm and maintained at 37 °C, leading to an initial enzalutamide concentration of 70 µg/mL. The experiments were performed in triplicate."}, "[2]": {"conditions": "cited from earlier work"}, "Aqueous solubility": {"assay": "Aqueous solubility", "assay_type": "physicochemical"}}, "note": "Marks after values point to notes of the source that are not given here."}
{"smiles": "CNC(=O)c1ccc(N2C(=S)N(c3ccc(C#N)c(C(F)(F)F)c3)C(=O)C2(C)C)cc1F", "note": "[Enzalutamide]", "values": [{"measurement": "Nucleation induction time", "setting": "[1]", "value": "~ 15 min"}, {"measurement": "Aqueous solubility (amorphous solubility)", "setting": "[2]; amorphous solubility of the drug", "value": "0.042^a mg/mL"}, {"measurement": "Free drug molecularly dissolved", "setting": "[2]; when 70 μg/mL enzalutamide is added to buffer, rest is colloidal amorphous aggregates", "value": "approximately 42 μg/mL"}, {"measurement": "Supersaturation ratio (S, amorphous solubility/crystalline solubility)", "setting": "Aqueous solubility", "value": "approximately 14.5"}, {"measurement": "solubility", "setting": "Aqueous solubility; crystalline form", "value": 2.9, "unit": "µg/mL"}]}
